# Test results from article PMC10791743, “Selective CK1α degraders exert antiproliferative activity against a broad range of human cancer cell lines” (Nature Communications, 2024).
# Where “and” joins values, the source holds several entries; their conditions need not be identical. Equal entries are not always repeated.
# How the values were obtained:
# [1] = test system: CRBN−/− MOLM-13 cells; experiment: Annexin-V staining for apoptosis, CRBN−/− MOLM-13; assay type: cell-based, human; conditions: for Late apoptosis, flow cytometry / Early apoptosis, flow cytometry: CRBN-/-; for total apoptosis, flow cytometry: MOLM-13 CRBN-/-
# Description: Wild type and CRBN^−/− MOLM-13 cells were grown in 12-well plates (TPP, Techno Plastic Products AG) with 500,000 cells per well in 2 ml total media volume. Cells were treated with 1 μl/ml DMSO or 1 μM compound in triplicate, and incubated for 24 or 72 h at 37 °C. To prepare samples, this buffer was used: 10 mM HEPES, 0.14 M NaCl, 2.5 mM CaCl2 pH 7.4, 2% v/v FBS in UltraPure water (Invitrogen). After incubation, samples were collected in 5-ml tubes for flow cytometry (Falcon). Single-stain controls consisted of ~150 μl of multiple samples combined. Wells were washed with 1 ml of buffer that was added to the corresponding sample tube. Cells were centrifuged at 500×g for 5 min at 4 °C to form a pellet. Supernatant was decanted and cells were washed again with 3 ml of buffer, then centrifuged. After decanting the supernatant, 3 μl of APC-conjugated anti-Annexin-V antibody (BioLegend) was added to each tube in the residual buffer left behind. Samples were mixed by vortex and incubated at room temperature in the dark for 20 min. Samples were then washed and centrifuged a final time, decanting the supernatant and blotting the tubes to remove residual buffer. 50 μl of buffer with DAPI was added to all appropriate samples and mixed, then analyzed by flow cytometry.
# Supplementary Fig. 13: Gating for Annexin V flow cytometry analysis. Total cells were gated to remove cell debris, followed by single cell gating on the FSC-A/FSC-H diagonal. Within the single […]
# Live cells are negative for both fluorescent markers, DAPI positive/APC negative cells are necrotic, APC positive/DAPI negative cells are still alive but in the early stages of apoptosis, and double positive cells are dead via apoptosis. Percentages of early and late apoptosis were plotted in supplementary figures 4 and 5.
# (1 picture or pasted object on this page, not shown here)
# [2] = molecular target: T1, CK1α (Homo sapiens, UniProt P48729+Q96SW2); experiment: CK1α HiBiT live-cell kinetic degradation assay (HEK293 cells); assay type: cell-based; parameters: engineered by CRISPR/Cas9 to express endogenous CK1α (HEK293 cells) with a HiBiT tag
# Text: To measure cellular protein levels, we used cell lines that have been engineered by CRISPR/Cas9 to express endogenous CK1α (HEK293 cells) or IKZF1 (Jurkat cells) with a HiBiT tag, which when coupled with LgBiT expression forms NanoBiT, a bioluminescent protein that can be used for kinetic studies of protein degradation. […] Cell viability was also monitored with CellTiter Glo 2.0 (Promega) at the completion of the experiment to ensure that loss of protein was not a consequence of a loss of cell viability.
# IKZF1-HiBiT Jurkat LgBiT stable cells were seeded at 60,000 cells/well in 50% growth media/50% CO2 independent medium supplemented with 10% FBS and 1× Endurazine substrate. […] A dose–response curve was generated by performing 3-fold dilutions of each compound including a DMSO-only control in growth media. For live cell kinetic degradation assays, diluted compounds were added to CK1α and β-catenin plates and placed in a GloMax Discover (Promega, Cat. #GM3000) preheated to 37 °C or added to IKZF1 plates and placed in a CLARIOstar Plus (BMG LABTECH) preheated to 37 °C.
# Relative protein level was determined based on normalization to the DMSO control and reported at Fractional RLUs. Degradation rate and degradation maximums were calculated from Fractional RLUs as previously described[38] using GraphPad Prism software. β-catenin stabilization time of onset for each concentration curve was calculated in GraphPad Prism by fitting an unconstrained plateau followed by one phase association model using the equation below (Y = IF(X < X0, Y0,Y0+(Plateau−Y0)*(1−exp(−K*(X−X0))))). The parameter, X0 was used as time of onset for each compound concentration.
# [3] = molecular target: T1, CK1α; experiment: CK1α immunoblotting in MOLM-13 cells; assay type: cell-based; parameters: immunoblot analysis of CK1α in MOLM-13 cells following treatment with increasing concentrations of SJ7095 over 4 h; endogenous in cells; host or cells: MOLM-13 (DSMZ ACC 554); conditions: for CK1a western blot quantification: CK1a data from blots in fig 2b
# Description: Frozen pellets of ~1 million cells were lysed in 150 µl of SDS lysis buffer (60 mM Tris/HCl pH 7, 10% glycerol, 2% SDS, 5% beta-mercaptoethanol, 0.02% bromophenol blue, 0.5% protease and phosphatase inhibitor cocktail (Sigma Aldrich)). When cells were resuspended, samples were heated for 3 min at 99 °C then put on ice. Samples were then fragmented by sonication for 10 0.5-s pulses (550 Sonic Dismembrator, Fisher Scientific) and heated again at 99 °C for 2 min. 15 μl of each sample was added to the wells of a 4–20% polyacrylamide gel (Bio-Rad). A mixture of 2 μl of Precision Plus Protein Unstained Standards and 2 μl of Precision Plus Protein All Blue Standards (Bio-Rad) was used for the size marker. After electrophoresis, gels were transferred to nitrocellulose membrane using the Bio-Rad Trans-Blot Turbo system on the mixed molecular weight setting. Membranes were blocked for 1 h in Li-Cor Intercept Blocking Buffer then probed overnight at 4 °C with primary antibody, at 1:1000 dilution or 1:2000 dilution for actin, in Li-Cor Intercept Antibody Diluent. The following morning, membranes were washed three times for 5 min with TBS + 0.05% Tween-20, probed with fluorescent secondary antibodies (goat anti-rabbit IRDye 800CW and goat anti-mouse IRDye 680RD, Li-Cor) for 1 h at room temperature in the dark at 1:10,000 dilution, and washed again 3 times. Blots were imaged with the Li-Cor Odyssey CLx and analyzed using Image Studio Version 5.2.
# [4] = time course 0-8 hrs, relative to no treatment
# [5] = western blot quantification, relative to DMSO
# T1 sequence (P48729 whole entry): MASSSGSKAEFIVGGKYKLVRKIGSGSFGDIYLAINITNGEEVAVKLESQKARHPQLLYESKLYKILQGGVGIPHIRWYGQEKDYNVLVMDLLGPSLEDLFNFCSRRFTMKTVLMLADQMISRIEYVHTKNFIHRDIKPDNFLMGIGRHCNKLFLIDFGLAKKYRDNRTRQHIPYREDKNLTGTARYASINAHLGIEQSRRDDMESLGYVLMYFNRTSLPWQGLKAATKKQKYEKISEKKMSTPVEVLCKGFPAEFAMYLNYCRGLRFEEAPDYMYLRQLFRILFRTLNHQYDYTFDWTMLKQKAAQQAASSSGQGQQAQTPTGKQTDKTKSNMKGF
# T1 sequence (Q96SW2 whole entry): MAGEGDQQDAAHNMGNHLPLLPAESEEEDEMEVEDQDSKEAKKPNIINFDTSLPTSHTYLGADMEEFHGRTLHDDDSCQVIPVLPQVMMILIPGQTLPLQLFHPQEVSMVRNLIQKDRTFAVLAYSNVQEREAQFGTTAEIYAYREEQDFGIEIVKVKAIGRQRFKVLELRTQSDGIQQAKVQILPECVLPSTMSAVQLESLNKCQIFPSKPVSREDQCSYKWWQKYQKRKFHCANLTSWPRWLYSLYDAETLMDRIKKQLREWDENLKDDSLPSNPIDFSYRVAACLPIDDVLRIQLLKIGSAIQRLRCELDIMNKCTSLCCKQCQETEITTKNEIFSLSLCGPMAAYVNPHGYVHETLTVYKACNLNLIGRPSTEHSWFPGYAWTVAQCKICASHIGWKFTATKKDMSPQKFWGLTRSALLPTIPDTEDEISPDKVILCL
# T1 sequence (Q16531 whole entry partner): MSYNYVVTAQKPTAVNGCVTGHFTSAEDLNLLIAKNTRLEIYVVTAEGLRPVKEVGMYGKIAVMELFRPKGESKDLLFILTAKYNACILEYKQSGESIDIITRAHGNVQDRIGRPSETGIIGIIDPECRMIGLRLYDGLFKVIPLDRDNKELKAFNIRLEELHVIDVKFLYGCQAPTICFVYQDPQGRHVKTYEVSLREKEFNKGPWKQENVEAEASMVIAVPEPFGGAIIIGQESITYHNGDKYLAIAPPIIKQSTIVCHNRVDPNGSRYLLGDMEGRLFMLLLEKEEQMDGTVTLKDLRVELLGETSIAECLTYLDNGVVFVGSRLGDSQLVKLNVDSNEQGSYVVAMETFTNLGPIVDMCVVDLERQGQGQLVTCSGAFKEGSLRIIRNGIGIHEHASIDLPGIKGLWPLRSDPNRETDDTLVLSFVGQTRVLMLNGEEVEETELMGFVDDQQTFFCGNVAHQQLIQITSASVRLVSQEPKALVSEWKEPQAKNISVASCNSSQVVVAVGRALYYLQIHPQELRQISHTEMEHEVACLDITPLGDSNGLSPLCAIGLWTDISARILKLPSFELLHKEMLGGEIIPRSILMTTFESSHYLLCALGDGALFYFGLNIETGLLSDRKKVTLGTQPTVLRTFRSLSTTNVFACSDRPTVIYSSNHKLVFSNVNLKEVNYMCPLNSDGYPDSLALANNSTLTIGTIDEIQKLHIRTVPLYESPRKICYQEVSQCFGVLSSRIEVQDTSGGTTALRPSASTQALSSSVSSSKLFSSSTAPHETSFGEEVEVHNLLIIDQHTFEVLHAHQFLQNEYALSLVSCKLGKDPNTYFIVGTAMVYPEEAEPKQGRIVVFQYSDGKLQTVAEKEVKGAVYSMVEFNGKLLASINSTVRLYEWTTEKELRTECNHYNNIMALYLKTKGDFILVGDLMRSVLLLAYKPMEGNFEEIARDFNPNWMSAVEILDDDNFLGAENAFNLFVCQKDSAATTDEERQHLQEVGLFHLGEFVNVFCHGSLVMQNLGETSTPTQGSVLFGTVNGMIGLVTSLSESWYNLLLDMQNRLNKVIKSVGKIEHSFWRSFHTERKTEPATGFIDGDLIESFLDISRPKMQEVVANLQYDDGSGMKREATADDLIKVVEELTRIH
smiles,measurement,setting,value
O=C1CCC(N2Cc3cc(Nc4noc5ccccc45)ccc3C2=O)C(=O)N1 (stereo not shown) [SJ3149],Effect on viability of CRBN−/− cells (annexin-V),[1]; 1 μM,no effect on the viability
same,"Late apoptosis, flow cytometry","[1]; SI_Fig 4b, DMSO 3.1, 3.5, 3.3",2.9 and 2.8 and 2.6
same,"Early apoptosis, flow cytometry","[1]; SI_Fig 4b, DMSO 7.1, 7.5, 7.8",8.1 and 7.5 and 5.1
same,"Late apoptosis, flow cytometry","[1]; SI_Fig 5b, DMSO 1.3, 1.9, 2",2.1 and 1.7 and 2.2
same,"Early apoptosis, flow cytometry","[1]; SI_Fig 5b, DMSO 4.6, 5.9, 7.6",6.7 and 6.2 and 6.6
same,"total apoptosis, flow cytometry","[1]; SI_Fig 4c, DMSO 10.2, 11.1, 11.2",10.9 and 10.4 and 7.6
same,"total apoptosis, flow cytometry","[1]; SI_Fig 5c, DMSO 5.8, 7.8, 9.6",8.8 and 7.9 and 8.7
same,CK1a Degradation Rate Constant,[2]; 0.111 uM,2.872 λ/hour
same,CK1a Percent Maximum Degradation,[2]; 0.111 uM,90.93% and 90.25% and 91.10%
same,CK1a Degradation Rate Constant,[2]; 0.333 uM,3.25 λ/hour
same,CK1a Percent Maximum Degradation,[2]; 0.333 uM,91.59% and 92.14% and 92.11%
same,CK1a Degradation Rate Constant,[2]; 1 uM,3.334 λ/hour
same,CK1a Percent Maximum Degradation,[2]; 1 uM,92.68% and 92.87% and 92.05%
same,CK1a Degradation Rate Constant,[2]; 3 uM,3.448 λ/hour
same,CK1a Percent Maximum Degradation,[2]; 3 uM,93.01% and 93.23% and 92.96%
same,CK1a Degradation Rate Constant,[2]; 10 uM,3.507 λ/hour
same,CK1a Percent Maximum Degradation,"[2]; 10 uM, replicates",95.39% and 95.59% and 95.66%
same,Dmax at 0.111 µM,"[2]; CK1, 0.111 uM, read-out: CK1a Percent Maximum Degradation",90.6%
same,Dmax at 0.333 µM,"[2]; CK1, 0.333 uM, read-out: CK1a Percent Maximum Degradation",91.9%
same,Dmax at 1 µM,"[2]; CK1, 1 uM, read-out: CK1a Percent Maximum Degradation",92.6%
same,Dmax at 3 µM,"[2]; CK1, 3 uM, read-out: CK1a Percent Maximum Degradation",92.7%
same,Dmax at 10 µM,"[2]; CK1, 10 uM, replicates, read-out: CK1a Percent Maximum Degradation",95.4%
same,CK1α degradation depth (HiBiT),[2]; HEK293,near-complete degradation
same,CK1α degradation rate relative to SJ0040,[2]; HEK293,~2 fold
same,CK1α degradation rate relative to lenalidomide,[2]; HEK293,~10 fold
same,DC50,"[2]; HEK293, at 4 h",6 nM
same,CK1α degradation within the first 30 min,[2]; at most concentrations,> 50%
same,"CK1α protein, time course","[3]; MOLM-13, 1 μM, 0-8 h",near complete loss of CK1α protein by 1 h
same,DC50,"[3]; MOLM-13, 4 h, read-out: CK1α DC50 (immunoblot)",3.7 nM and 4 nM
same,Dmax,"[3]; MOLM-13, 4 h, read-out: CK1α Dmax (immunoblot)",95%
same,CK1a western blot quantification,"[3]; SJ3149 0.001 uM, relative to DMSO",0.9925 and 0.9819 and 0.7065
same,CK1a western blot quantification,"[3]; SJ3149 0.01 uM, relative to DMSO",0.3125 and 0.2648 and 0.1727
same,CK1a western blot quantification,"[3]; SJ3149 0.1 uM, relative to DMSO",0.1087 and 0.1074 and 0.06013
same,CK1a quantified protein expression (western blot),"[3]; time 8 hrs, relative to no treatment, 3 western blots",0.0615 and 0.09529 and 0.04877
same,"IC50 (line fit, sigmoidal 4PL) of CK1a expression versus time","[3]; time course 0-8 hrs, X axis is time",0.403
same,"Bottom (line fit, sigmoidal 4PL) of CK1a expression versus time",[3]; [4],0.04517
same,"Top (line fit, sigmoidal 4PL) of CK1a expression versus time",[3]; [4],0.8089
same,DC50,"[3]; western blot quantification, blots in fig 2b, read-out: IC50 (sigmoidal 4PL fit) of CK1a protein level",3.75 nM
same,Bottom (sigmoidal 4PL fit) of CK1a protein level,[3]; [5],0.07909
same,Top (sigmoidal 4PL fit) of CK1a protein level,[3]; [5],1.004
